Publication PMC9613470, “Diverse MarR bacterial regulators of auxin catabolism in the plant microbiome” (Nature Microbiology, 2022)
Read-outs that look alike come from different tables or passages of the source.

What was measured:
[1] = target: Variovorax paradoxus CL14 MarR_73 (Variovorax paradoxus, UniProt C5CSP2); assay: biochemical; type: binding
Description: The coding sequence for each gene can be found in Supplementary Table 10. MarR expression plasmids were synthesized as codon-optimized genes for E. coli expression by BioBasic in the pLIC-His N-term vector (pMCSG7) and transformed into E. coli BL21 (DE3) Gold cells for expression. […] At an OD600 of 0.8, protein expression was induced by the addition of 0.1 mM IPTG and incubation continued overnight. Cells were collected by centrifugation at 4,500 × g for 20 min at 4 °C in a Sorvall (model RC-3B) swinging bucket centrifuge. Cell pellets were resuspended in buffer A (20 mM potassium phosphate, pH 7.4, 50 mM imidazole, 500 mM NaCl), DNase, lysozyme and a Roche Complete EDTA-free protease inhibitor tablet. Resuspended cells were sonicated and clarified via centrifugation at 17,000 × g for 60 min in a Sorvall (model RC-5B) swinging bucket centrifuge. The lysate was applied to a nickel-nitrilotriacetic acid HP column (GE Healthcare) on an Aktaxpress Fast Performance Liquid Chromatography (FPLC) system (Amersham Bioscience) and washed with buffer A. Protein was eluted with buffer B (20 mM potassium phosphate, pH 7.4, 500 mM imidazole, 500 mM NaCl). Fractions containing the protein of interest were combined and passed over a HiLoadTM 16/60 SuperdexTM 200 gel filtration column. Proteins were eluted in S200 buffer (20 mM HEPES, pH 7.4, 300 mM NaCl). Fractions were combined and concentrated for long-term storage at −80 °C.
All ITC measurements were performed at 25 °C using an Auto-ITC200 microcalorimeter (MicroCal/GE Healthcare). The buffer employed was 20 mM HEPES, pH 7.4, 50 mM NaCl and 0.5% dimethly sulfoxide (DMSO) for protein/ligand binding and 20 mM HEPES, pH 7.4 and 300 mM NaCl for DNA/protein binding experiments. For ligand binding experiments, the calorimetry cell (volume […]) was loaded with MarR wild-type, mutant or homologue protein at a concentration of 50 μM. The syringe was loaded with a ligand concentration of 0.5 or 2 mM. […] A typical injection protocol included a single 0.2 μl first injection followed by 20 1.5 μl injections of the syringe sample into the calorimetry cell. The spacing between injections was kept at 180 s and the reference power at 8 μcal s^−1. […] Two independent ITC measurements were performed for each condition.

[2] = tested on: Variovorax paradoxus CL14 MarR_73 S28A; assay: ITC binding of duplex oligo DNA to MarR_73 S28A
[3] = ITC, 25 °C, 20 mM HEPES pH 7.4, 50 mM NaCl, 0.5% DMSO, mean of two measurements ± standard error
[4] = ITC, 25 °C, 20 mM HEPES pH 7.4, 300 mM NaCl
[5] = ITC, 25 °C, 20 mM HEPES pH 7.4, 300 mM NaCl, duplex oligo in cell, protein in syringe

Variovorax paradoxus CL14 MarR_73 S28A, sequence (as listed by the source, stated change not applied): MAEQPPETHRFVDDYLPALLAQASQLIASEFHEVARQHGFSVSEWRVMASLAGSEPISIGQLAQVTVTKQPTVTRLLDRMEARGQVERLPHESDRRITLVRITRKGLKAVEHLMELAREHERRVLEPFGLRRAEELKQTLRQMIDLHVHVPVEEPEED
Variovorax paradoxus CL14 MarR_73, sequence (C5CSP2 entry or part of it): as the sequence (as listed by the source, stated change not applied) above, with A28S counted along it

Compound: O=C(O)CCc1c[nH]c2ccccc12 [Indole-3-propionic Acid]
- Kd [1]: 17 ± 0.1 µM
- N (ligand binding stoichiometry to the MarR monomer) [1, 3]: 0.81 ± 0.05

Compound: Nc1c(Cl)c(Cl)nc(C(=O)O)c1Cl [Picloram]
- Kd [1]: 16 ± 0.4 µM
- N (ligand binding stoichiometry to the MarR monomer) [1, 3]: 0.96 ± 0.01

Compound: AATTCATGATTGTGGATACATTCA: 24 bp MarR_73 DNA binding sequence between genes 73 and 72 (antisense TTAAGTACTAACACCTATGTAAGT; chemistry not fully specified; one strand is listed 3' to 5')
- Kd ([2]; ITC in 150 mM NaCl): 151 ± 25 nM
- N ([2]; ITC in 150 mM NaCl): 2.51 ± 0.26
- N (MarR monomer binding stoichiometry to duplex DNA) [2, 4]: 2.5 ± 0.2
- Kd [2, 5]: 210 ± 90 nM

Compound: O=C(O)Cc1c[nH]c2ccc(O)cc12 [5-Hydroxyindole-3-Acetic Acid]
- Kd [1]: 10 ± 0.3 µM
- N (ligand binding stoichiometry to the MarR monomer) [1, 3]: 0.78 ± 0.25

Compound: O=C(O)c1c[nH]c2ccccc12 [Indole-3-Carboxylic Acid]
- Kd [1]: 4.6 ± 0.5 µM
- N (ligand binding stoichiometry to the MarR monomer) [1, 3]: 0.67 ± 0.03

Compound: O=C(O)c1ccccc1O [Salicylic Acid]
- Kd [1]: 14 ± 3 µM
- N (ligand binding stoichiometry to the MarR monomer) [1, 3]: 0.90 ± 0.01

Compound: Oc1ccccc1O [Catachol (1,2-Dihydroxybenzene), 1,2-Dihydroxybenzene]
- Kd [1]: 13 ± 0.1 µM
- N (ligand binding stoichiometry to the MarR monomer) [1, 3]: 0.76 ± 0.01

Compound: O=C(O)Cc1cccc2ccccc12 [1-Naphthaleneacetic Acid]
- Kd [1]: 0.33 ± 0.01 µM
- N (ligand binding stoichiometry to the MarR monomer) [1, 3]: 0.74 ± 0.01

Compound: O=C(O)Cc1ccccc1 [Phenylacetic Acid]
- Kd [1]: 10 ± 0.1 µM
- N (ligand binding stoichiometry to the MarR monomer) [1, 3]: 0.79 ± 0.02

Compound: GTAATTCATGATTGTGGATACATTCATTTG: 30 bp duplex oligo DNA, sequence between genes 73 and 72 of the Variovorax IAA degradation locus (antisense CATTAAGTACTAACACCTATGTAAGTAAAC; chemistry not fully specified; one strand is listed 3' to 5')
- N (MarR monomer binding stoichiometry to duplex DNA) [2, 4]: 2.0 ± 0.1
- Kd [2, 5]: 270 ± 20 nM

Compound: O=C(O)c1ccccc1 [Benzoic Acid]
- Kd [1]: 13 ± 1 µM
- N (ligand binding stoichiometry to the MarR monomer) [1, 3]: 0.80 ± 0.01

Compound: O=C(O)CCCc1c[nH]c2ccccc12 [Indole-3-Butyric Acid]
- Kd [1]: 18 ± 1 µM
- N (ligand binding stoichiometry to the MarR monomer) [1, 3]: 0.80 ± 0.01

Compound: O=C(O)COc1ccc(Cl)cc1Cl [2,4-Dichorophenoxyacetic Acid]
- N (ligand binding stoichiometry to the MarR monomer) [1, 3]: 1.40 ± 0.01
- Kd ([1]; ITC, 25 °C, 20 mM HEPES pH 7.4, 50 mM NaCl, 0.5% DMSO, mean of two measurements ± standard error, read-out: KD): 11 ± 1 µM

Compound: AATTCATGATTGTGGATACATT: 22 bp duplex oligo DNA, sequence between genes 73 and 72 (antisense TTAAGTACTAACACCTATGTAA; chemistry not fully specified; one strand is listed 3' to 5')
- Kd ([2]; ITC in 150 mM NaCl): 428 ± 2 nM
- N ([2]; ITC in 150 mM NaCl): 1.75 ± 0.014
- N (MarR monomer binding stoichiometry to duplex DNA) [2, 4]: 2.1 ± 0.3
- Kd [2, 5]: 520 ± 90 nM
